Laboratory results published in patent US20260297081A1, “COMPOUNDS AND METHODS OF TREATING CANCERS” (Cullgen Inc., priority 2023, published 2026).

Experiments:
MCF7 cells = assay: Anti-proliferation (viability) of MCF7 cells (Table 7, FIG. 2B); assay type: cell-based; conditions: Homo sapiens, MCF7, MCF7 cells, 3-6 days, 10-point serial dilution; read-out: GI IC50 in MCF-7
Calu-1 cells = assay: Anti-proliferation (viability) of NSCLC Calu-1 cells, 3 days (Table 7, FIG. 2B); assay type: cell-based; conditions: Homo sapiens, 72 h; Calu-1 cells, 3 days, 10-point serial dilution; read-out: GI IC50 in Calu-1
Summary of the method: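 Cells were exposed to heterobifunctional compounds across a 10-point serial dilution, for 3 days with Calu-1 and 6 days with T47D. A negative control was included that keeps the DDB1 ligand and linker but carries a modified warhead that impairs CDK4 binding.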

Structure (SMILES)	IC50 (MCF7 cells) [nM]	IC50 (Calu-1 cells) [nM]
CC(=O)c1c(C)c2cnc(Nc3ccc(N4CCC5(CC4)CC5C(=O)NC4CC5(C4)CC(Nc4nc(NC(C)C)ccc4C(=O)Nc4cn(C)c(C6CC6)n4)C5)cn3)nc2n(C2CCCC2)c1=O (stereo not shown) [CPD-457, 6-(6-((6-acetyl-8-cyclopentyl-5-methyl-7-oxo-7,8-dihydropyrido[2,3-d]pyrimidin-2-yl)amino)pyridin-3-yl)-N-(6-((3-((2-cyclopropyl-1-methyl-1H-imidazol-4-yl)carbamoyl)-6-(isopropylamino)pyridin-2-yl)amino)spiro[3.3]heptan-2-yl)-6-azaspiro[2.5]octane-1-carboxamide]	< 50	≤ 10
[2H]C([2H])([2H])Nc1ccc(C(=O)Nc2ccc(N(C)C)nn2)c(NC2CC3(C2)CN(C(=O)CCN2CCN(c4ccc(Nc5ncc6c(C)c(C(C)=O)c(=O)n(C7CCCC7)c6n5)nc4)CC2(C)C)C3)n1 [CPD-458, 2-((2-(3-(4-(6-((6-acetyl-8-cyclopentyl-5-methyl-7-oxo-7,8-dihydropyrido[2,3-d]pyrimidin-2-yl)amino)pyridin-3-yl)-2,2-dimethylpiperazin-1-yl)propanoyl)-2-azaspiro[3.3]heptan-6-yl)amino)-N-(6-(dimethylamino)pyridazin-3-yl)-6-((methyl-d3)amino)nicotinamide]	> 100	≤ 10
CC(=O)c1c(C)c2cnc(Nc3ccc(N4CCN(CCC(=O)N5CC6(CC(Nc7nc(NC(C)C)ccc7C(=O)Nc7ccc(N(C)C)nn7)C6)C5)C(C)(C)C4)cn3)nc2n(C2CCCC2)c1=O [CPD-459, 2-((2-(3-(4-(6-((6-acetyl-8-cyclopentyl-5-methyl-7-oxo-7,8-dihydropyrido[2,3-d]pyrimidin-2-yl)amino)pyridin-3-yl)-2,2-dimethylpiperazin-1-yl)propanoyl)-2-azaspiro[3.3]heptan-6-yl)amino)-N-(6-(dimethylamino)pyridazin-3-yl)-6-(isopropylamino)nicotinamide]	> 100	≤ 10
CC(=O)c1c(C)c2cnc(Nc3ccc(N4CCC(N5CCC(C(=O)NC6CC(Nc7nc(NC(C)C)ccc7C(=O)Nc7ccc(N(C)C)nn7)C6)C5)CC4)cn3)nc2n(C2CCCC2)c1=O (stereo not shown) [CPD-460, 2-((3-(1-(1-(6-((6-acetyl-8-cyclopentyl-5-methyl-7-oxo-7,8-dihydropyrido[2,3-d]pyrimidin-2-yl)amino)pyridin-3-yl)piperidin-4-yl)pyrrolidine-3-carboxamido)cyclobutyl)amino)-N-(6-(dimethylamino)pyridazin-3-yl)-6-(isopropylamino)nicotinamide]	> 100	≤ 10
CC(=O)c1c(C)c2cnc(Nc3ccc(N4CCC(N5CCC(C(=O)NCC6CC(Nc7nc(NC(C)C)ccc7C(=O)Nc7ccc(N(C)C)nn7)C6)C5)CC4)cn3)nc2n(C2CCCC2)c1=O (stereo not shown) [CPD-461, 2-((3-((1-(1-(6-((6-acetyl-8-cyclopentyl-5-methyl-7-oxo-7,8-dihydropyrido[2,3-d]pyrimidin-2-yl)amino)pyridin-3-yl)piperidin-4-yl)pyrrolidine-3-carboxamido)methyl)cyclobutyl)amino)-N-(6-(dimethylamino)pyridazin-3-yl)-6-(isopropylamino)nicotinamide]	50 to 100	≤ 10
CC(=O)c1c(C)c2cnc(Nc3ccc(N4CCC(N5CCC(C(=O)NC6CCC(Nc7nc(NC(C)C)ccc7C(=O)Nc7ccc(N(C)C)nn7)CC6)C5)CC4)cn3)nc2n(C2CCCC2)c1=O (stereo not shown) [CPD-462, 2-((4-(1-(1-(6-((6-acetyl-8-cyclopentyl-5-menthyl-7-oxo-7,8-dihydropyrido[2,3-d]pyrimidin-2-yl)amino)pyridin-3-yl)piperidin-4-yl)pyrrolidine-3-carboxamido)cyclohexyl)amino)-N-(6-(dimethylamino)pyridazin-3-yl)-6-(isopropylamino)nicotinamide]	> 100	10 to 50
[2H]C([2H])([2H])Nc1ccc(C(=O)Nc2ccc(N(C)C)nn2)c(NC2CCN(C(=O)CN(C)C3CCN(c4ccc(Nc5ncc6c(C)c(C(C)=O)c(=O)n(C7CCCC7)c6n5)nc4)CC3)CC2)n1 [CPD-463, 2-((1-(N-(1-(6-((6-acetyl-8-cyclopentyl-5-methyl-7-oxo-7,8-dihydropyrido[2,3-d]pyrimidin-2-yl)amino)pyridin-3-yl)piperidin-4-yl)-N-methylglycyl)piperidin-4-yl)amino)-N-(6-(dimethylamino)pyridazin-3-yl)-6-((methyl-d3)amino)nicotinamide]	< 50	≤ 10
[2H]C([2H])([2H])Nc1ccc(C(=O)Nc2ccc(N(C)C)nn2)c(NC2CC3(C2)CN(C(=O)CN(C)C2CCN(c4ccc(Nc5ncc6c(C)c(C(C)=O)c(=O)n(C7CCCC7)c6n5)nc4)CC2)C3)n1 [CPD-464, 2-((2-(N-(1-(6-((6-acetyl-8-cyclopentyl-5-methyl-7-oxo-7,8-dihydropyrido[2,3-d]pyrimidin-2-yl)amino)pyridin-3-yl)piperidin-4-yl)-N-methylglycyl)-2-azaspiro[3.3]heptan-6-yl)amino)-N-(6-(dimethylamino)pyridazin-3-yl)-6-((methyl-d3)amino)nicotinamide]	< 50	≤ 10
CC(=O)c1c(C)c2cnc(Nc3ccc(N4CCC(N(C)CC(=O)N5CCC(Nc6nc(NC(C)C)ccc6C(=O)Nc6cc(C)n(C)n6)CC5)CC4)cn3)nc2n(C2CCCC2)c1=O [CPD-465, 2-((1-(N-(1-(6-((6-acetyl-8-cyclopentyl-5-methyl-7-oxo-7,8-dihydropyrido[2,3-d]pyrimidin-2-yl)amino)pyridin-3-yl)piperidin-4-yl)-N-methylglycyl)piperidin-4-yl)amino)-N-(1,5-dimethyl-1H-pyrazol-3-yl)-6-(isopropylamino)nicotinamide]	< 50	≤ 10
CC(=O)c1c(C)c2cnc(Nc3ccc(N4CCC(N(C)CC(=O)N5CCC(Nc6nc(NC(C)C)ccc6C(=O)Nc6cn(C)c(C7CC7)n6)CC5)CC4)cn3)nc2n(C2CCCC2)c1=O [CPD-466, 2-((1-(N-(1-(6-((6-acetyl-8-cyclopentyl-5-methyl-7-oxo-7,8-dihydropyrido[2,3-d]pyrimidin-2-yl)amino)pyridin-3-yl)piperidin-4-yl)-N-methylglycyl)piperidin-4-yl)amino)-N-(2-cyclopropyl-1-methyl-1H-imidazol-4-yl)-6-(isopropylamino)nicotinamide]	50 to 100	≤ 10
CC(=O)c1c(C)c2cnc(Nc3ccc(N4CC5(CN(CC(=O)NC6CC7(C6)CC(Nc6nc(NC(C)C)ccc6C(=O)Nc6ccc(N(C)C)nn6)C7)C5)C4)cn3)nc2n(C2CCCC2)c1=O (stereo not shown) [CPD-467, 2-((6-(2-(6-(6-((6-acetyl-8-cyclopentyl-5-methyl-7-oxo-7,8-dihydropyrido[2,3-d]pyrimidin-2-yl)amino)pyridin-3-yl)-2,6-diazaspiro[3.3]heptan-2-yl)acetamido)spiro[3.3]heptan-2-yl)amino)-N-(6-(dimethylamino)pyridazin-3-yl)-6-(isopropylamino)nicotinamide]	> 100	≤ 10
